Reference: patent US20230107941A1, “HEPATITIS B CAPSID ASSEMBLY MODULATORS” (Venatorx Pharmaceuticals, Inc., priority 2019, published 2023)

Tests used:
HBV = test: In vitro antiviral assay: anti-HBV replication in HepAD38 cells (extracellular HBV DNA by QPCR); type: cell-based, hepatitis B virus (genotype D, serotype ayw); conditions: Hepatitis B virus, HePAD38, 168 h, 7 days incubation, extracellular HBV DNA by QPCR, read-out: Anti-HBV EC50
Procedure: The anti-HBV activity of the Capsid Assembly Modulators (CAMs) was evaluated in a cell based assay utilizing the human hepatoma cell line HepAD38 (Ladner, S K., et al., 1998). HepAD38 cells were derived from the parental line, HepG2, that were stably transfected with a construct containing an HBV genome (genotype D, serotype ayw) under the control of a tetracycline repressible CMV promoter. Upon removal of tetracycline, viral pre-genomic RNA (pgRNA) and mRNAs are expressed and infectious viral particles are assembled and secreted into the culture medium providing a reliable, robust system to measure multiple steps of the HBV life cycle. Disruption of capsid formation results in reduced levels of DNA-containing virus particles that are released into the culture supernatant. To quantify the effect of CAMs on HBV replication, we developed a sensitive QPCR-based assay that measures extracellular HBV DNA levels upon treatment of HepAD38 cells with various concentrations of test compounds.
HepAD38 cells were maintained in DMEM/F12 medium containing 10% FBS, 400 μg/mL G418 and 0.3 μg/mL tetracycline (tet+ media) to maintain repression of HBV replication. To evaluate each compound, HepAD38 cells were seeded into 24-well collagen coated culture plates (Corning BioCoat) at a density of 200,000 cells per well in 1 mL of medium without tetracycline (tet-media) and allowed to adhere overnight at 37° C., 5% CO2 in a humidified incubator. The following day, media was refreshed and a dose range of each compound was prepared by performing 1 log10 serial dilutions in 100% DMSO at 200× the desired assay concentration. Dilutions were then added to the cells resulting in a final dose range of 1 μM to 10 pM and the plates were returned to the incubator. Following 7 days of incubation, culture supernatants were harvested and HBV DNA levels were evaluated by QPCR and compared to the vehicle treated control wells (i.e. DMSO alone).
To quantify HBV DNA levels, cell culture supernatants were diluted 1:10 in sterile, nuclease-free water (Gibco). The diluted supernatants were subsequently added to a PCR master mix containing 1× Roche Light Cycler Master Mix, 0.5 μM forward primer, 0.5 μM reverse primer (Fwd: 5′-[…] (SEQ ID NO 1); Rev: 5′-[…] (SEQ ID NO 2)), 0.2 μM Roche Universal Probe Library Probe 25. The volume was brought to 20 μL with nuclease-free water and amplification of the HBV target sequence was performed using a Roche LightCycler 480 QPCR instrument. PCR extended out to 45 cycles with each cycle consisting of a denaturation step at 95° C. for 10 sec., followed by an annealing step at 60° C. for 10 sec. and a brief extension step at 72° C. for 1 sec.
Extracellular HBV DNA levels, expressed in copies/mL, were determined by comparison to a standard curve (10^2-10^9 copies/mL) using the Roche LightCycler analysis software. These values were subsequently converted to percent inhibition of HBV replication by dividing the HBV DNA levels in the experimental samples with those obtained from the vehicle control (˜1-2×10^5 copies/mL). Potency, expressed as an EC50 (the effective concentration required to inhibit 50% of HBV replication), was calculated from the dose-response curve using a 4-parameter non-linear regression analysis (GraphPad Prism). The nucleoside analog inhibitor entecavir was used as a positive control to validate each assay run. The EC50 value of entecavir in the HepAD38 assay was 0.5 nM, as previously reported in the literature.

[1] = In vitro cytotoxicity assay (MTT cell viability) in HepG2 cells; type: cell-based, human; conditions: human
Procedure: To evaluate antiviral selectivity, the cytotoxic activity of each compound was determined using a standard cell viability assay performed on the parental HepG2 cell line. Cell viability was determined by measuring the conversion of 3-(4,5-dimethylthiazol-2-yl)-2,5-diphenyltetrazolium bromide (MTT) to the insoluble formazan salt crystal that occurs in live cells. Briefly, HepG2 cells were seeded in 96-well plates at a density of 20,000 cells per well in […] (complete growth medium) and allowed to adhere overnight in a 37° C., […] humidified incubator. The next day, test agents were prepared by performing 8 half-log10 serial dilutions in 100% DMSO at 200× the final desired concentration in the assay. Compounds were tested over a range of concentrations from 30 μM to 1.0 nM in the assay. HepG2 cells were incubated in the presence of various concentrations of CAMs for 7 days in a 37° C., […] humidified incubator. At the completion of the 7-day incubation period, MTT reagent was added to each well and the mixture was incubated for an additional 3-4 hours. At the completion of the incubation period, all wells were aspirated to remove the culture medium. The formazan crystals were solubilized from the cell monolayers with 100% DMSO. Plates were briefly mixed on an orbital shaker and absorbance was measured at 492 nm using a Perkin-Elmer EnVision multi-label plate reader. All absorbance values were converted to a percentage of the signal obtained from the vehicle treated controls. Absorbance values at 492 nm are directly proportional to the number of viable cells present in the sample. A CC50 value (cytotoxic concentration that results in loss of 50% cell viability) was calculated from the dose-response curve by 4-parameter, non-linear regression analysis using the GraphPad Prism software. The positive control compound, staurosporine, reduced the viability of HepG2 cells in a dose-dependent manner (CC50=100 nM).

SMILES | EC50 (HBV) [µM] | CC50 at 7 days [1] [µM]
Cc1cc(NC(=O)c2c(C)c(C(=O)C(=O)N[C@@H]3CCCN(C(=O)Nc4ccc(F)c(F)c4)C3)n(C)c2C)ccc1F [Example 35, (R)-N-(3,4-difluorophenyl)-3-(2-(4-((4-fluoro-3-methylphenyl)carbamoyl)-1,3,5-trimethyl-1H-pyrrol-2-yl)-2-oxoacetamido)piperidine-1-carboxamide] | 0.5 to 1 | 5 to 30
Cc1cc(NC(=O)c2c(C)c(C(=O)C(=O)NC3(C)CCN(C(=O)N4CCOCC4)CC3)n(C)c2C)ccc1F [Example 36, N-(4-fluoro-3-methylphenyl)-1,2,4-trimethyl-5-(2-((4-methyl-1-(morpholine-4-carbonyl)piperidin-4-yl)amino)-2-oxoacetyl)-1H-pyrrole-3-carboxamide] | < 0.05 | > 30
Cc1c(C(=O)Nc2ccc(F)c(F)c2)c2n(c1C(=O)C(=O)N[C@@H]1COC[C@H]1N1CCOCC1)CCCC2 [Example 37, N-(3,4-difluorophenyl)-2-methyl-3-(2-(((3S,4S)-4-morpholinotetrahydrofuran-3-yl)amino)-2-oxoacetyl)-5,6,7,8-tetrahydroindolizine-1-carboxamide] | 0.05 to 0.499 | > 30
CCC1(NC(=O)C(=O)c2c(C)c(C(=O)Nc3ccc(F)c(C)c3)c(C)n2C)CCN(C(=O)c2cnn(C)c2)CC1 [Example 38, 5-(2-((4-ethyl-1-(1-methyl-1H-pyrazole-4-carbonyl)piperidin-4-yl)amino)-2-oxoacetyl)-N-(4-fluoro-3-methylphenyl)-1,2,4-trimethyl-1H-pyrrole-3-carboxamide] | < 0.05 | > 30
CCC1(NC(=O)C(=O)c2c(C)c(C(=O)Nc3ccc(F)c(C)c3)c(C)n2C)CCN(C(=O)c2ccnn2C)CC1 [Example 39, 5-(2-((4-ethyl-1-(1-methyl-1H-pyrazole-5-carbonyl)piperidin-4-yl)amino)-2-oxoacetyl)-N-(4-fluoro-3-methylphenyl)-1,2,4-trimethyl-1H-pyrrole-3-carboxamide] | < 0.05 | > 30
CCC1(NC(=O)C(=O)c2c(C)c(C(=O)Nc3ccc(F)c(C)c3)c(C)n2C)CCN(C(=O)c2cn(C)nc2C(F)F)CC1 [Example 40, 5-(2-((1-(3-(difluoromethyl)-1-methyl-1H-pyrazole-4-carbonyl)-4-ethylpiperidin-4-yl)amino)-2-oxoacetyl)-N-(4-fluoro-3-methylphenyl)-1,2,4-trimethyl-1H-pyrrole-3-carboxamide] | < 0.05 | > 30
CCC1(NC(=O)C(=O)c2c(C)c(C(=O)Nc3ccc(F)c(C)c3)c(C)n2C)CCN(C(C)=O)CC1 [Example 41, 5-(2-((1-acetyl-4-ethylpiperidin-4-yl)amino)-2-oxoacetyl)-N-(4-fluoro-3-methylphenyl)-1,2,4-trimethyl-1H-pyrrole-3-carboxamide] | < 0.05 | > 30
CCC1(NC(=O)C(=O)c2c(C)c(C(=O)Nc3ccc(F)c(C)c3)c(C)n2C)CCN(S(C)(=O)=O)CC1 [Example 42, 5-(2-((4-ethyl-1-(methylsulfonyl)piperidin-4-yl)amino)-2-oxoacetyl)-N-(4-fluoro-3-methylphenyl)-1,2,4-trimethyl-1H-pyrrole-3-carboxamide] | < 0.05 | > 30
CCC1(NC(=O)C(=O)c2c(C)c(C(=O)Nc3ccc(F)c(C)c3)c(C)n2C)CCN(c2nccs2)CC1 [Example 43, 5-(2-((4-ethyl-1-(thiazol-2-yl)piperidin-4-yl)amino)-2-oxoacetyl)-N-(4-fluoro-3-methylphenyl)-1,2,4-trimethyl-1H-pyrrole-3-carboxamide] | < 0.05 | 5 to 30
CCC1(NC(=O)C(=O)c2c(C)c(C(=O)Nc3ccc(F)c(C)c3)c(C)n2C)CCN(c2cccnn2)CC1 [Example 44, 5-(2-((4-ethyl-1-(pyridazin-3-yl)piperidin-4-yl)amino)-2-oxoacetyl)-N-(4-fluoro-3-methylphenyl)-1,2,4-trimethyl-1H-pyrrole-3-carboxamide] | < 0.05 | > 30
Cc1c(C(=O)Nc2ccc(B(O)O)cc2)c(C)n(C)c1C(=O)C(=O)NC(C)(C)C [Example 45, (4-(5-(2-(tert-butylamino)-2-oxoacetyl)-1,2,4-trimethyl-1H-pyrrole-3-carboxamido)phenyl)boronic acid] | 0.5 to 1 | > 30
Cc1c(C(=O)Nc2cccc(B(O)O)c2)c(C)n(C)c1C(=O)C(=O)NC(C)(C)C [Example 46, (3-(5-(2-(tert-butylamino)-2-oxoacetyl)-1,2,4-trimethyl-1H-pyrrole-3-carboxamido)phenyl)boronic acid] | 0.5 to 1 | > 30
Cc1csc(C2(NC(=O)c3c(C)c(C(=O)C(=O)NC(C)(C)C)n(C)c3C)CCCC2)n1 [Example 47, 5-(2-(tert-butylamino)-2-oxoacetyl)-1,2,4-trimethyl-N-(1-(4-methylthiazol-2-yl)cyclopentyl)-1H-pyrrole-3-carboxamide] | > 1 | > 30
Cc1c(C(=O)NC2COCCOC2)c(C)n(C)c1C(=O)C(=O)NC(C)(C)C [Example 48, 5-(2-(tert-butylamino)-2-oxoacetyl)-N-(1,4-dioxepan-6-yl)-1,2,4-trimethyl-1H-pyrrole-3-carboxamide] | > 1 | > 30
Cc1cc(NC(=O)c2c(C)c(C(=O)C(=O)NC3(C)CCCN(C(=O)Nc4ccc(F)c(F)c4)C3)n(C)c2C)ccc1F (stereo not shown) [Example 49, N-(3,4-difluorophenyl)-3-(2-(4-((4-fluoro-3-methylphenyl)carbamoyl)-1,3,5-trimethyl-1H-pyrrol-2-yl)-2-oxoacetamido)-3-methylpiperidine-1-carboxamide] | 0.05 to 0.499 | > 30
CCC1(NC(=O)C(=O)c2c(C)c(C(=O)Nc3ccc(F)c(C)c3)c(C)n2C)CCN(c2cnccn2)CC1 [Example 50, 5-(2-((4-ethyl-1-(pyrazin-2-yl)piperidin-4-yl)amino)-2-oxoacetyl)-N-(4-fluoro-3-methylphenyl)-1,2,4-trimethyl-1H-pyrrole-3-carboxamide] | < 0.05 | > 30
Cc1c(C(=O)Nc2cc(Cl)nc(Cl)c2)c(C)n(C)c1C(=O)C(=O)N[C@H](C)C(F)(F)F [Example 51, (R)-N-(2,6-dichloropyridin-4-yl)-1,2,4-trimethyl-5-(2-oxo-2-((1,1,1-trifluoropropan-2-yl)amino)acetyl)-1H-pyrrole-3-carboxamide] | < 0.05 | > 30
